Reference: PMC12281424, “A Rac-specific competitive inhibitor of guanine nucleotide binding reduces metastasis in triple-negative breast cancer” (Cell Reports Medicine, 2025)

What was measured:
PAK2(h) = PAK2(h) (Homo sapiens, UniProt Q13177); test: Kinase Profiler; assay type: biochemical
Procedure: (§1) Blood cell counts, kinase profiler, safety screen, bacterial cytotoxicity, Ames, micronucleus assays were performed by the company Eurofins (France). The kinase profiler was performed by the company Eurofins (Discovery, Panlab and Cerep).

SRPK2(h) = SRPK2(h) (Homo sapiens, UniProt P78362); test: Kinase Profiler; assay type: biochemical
Procedure: (§2) The kinase profiler was performed by the company Eurofins (Discovery, Panlab and Cerep).

Haspin(h) = Haspin(h) (Homo sapiens, UniProt Q8TF76); test: Kinase Profiler; assay type: biochemical
Procedure: as §2

Muscarinic M4 = Muscarinic M4 (Homo sapiens, UniProt P08173); test: Safety screen; assay type: binding
Procedure: Blood cell counts, kinase profiler, safety screen, bacterial cytotoxicity, Ames, micronucleus assays were performed by the company Eurofins (France).

MEKK2(h) = MEKK2(h) (Homo sapiens, UniProt Q9Y2U5); test: Kinase Profiler; assay type: biochemical
Procedure: as §2

TrkA(h) = TrkA(h) (Homo sapiens, UniProt P04629); test: Kinase Profiler; assay type: biochemical
Procedure: as §2

ICK(h) = ICK(h) (Homo sapiens, UniProt Q9UPZ9); test: Kinase Profiler; assay type: biochemical
Procedure: as §2

MSSK1(h) = MSSK1(h) (Homo sapiens, UniProt Q9UPE1); test: Kinase Profiler; assay type: biochemical
Procedure: as §1

NEK2(h) = NEK2(h) (Homo sapiens, UniProt P51955); test: Kinase Profiler; assay type: biochemical
Procedure: as §2

WNK3(h) = WNK3(h) (Homo sapiens, UniProt Q9BYP7); test: Kinase Profiler; assay type: biochemical
Procedure: as §2

CaMKI(h) = CaMKI(h) (Homo sapiens, UniProt Q14012); test: Kinase Profiler; assay type: biochemical
Procedure: as §1

HIPK2(h) = HIPK2(h) (Homo sapiens, UniProt Q9H2X6); test: Kinase Profiler; assay type: biochemical
Procedure: as §2

NEK9(h) = NEK9(h) (Homo sapiens, UniProt Q8TD19); test: Kinase Profiler; assay type: biochemical
Procedure: as §2

RAC1 = RAC1 (Homo sapiens, UniProt P63000); test: Nucleotide exchange kinetics (mant-GTP/mant-GDP fluorescence); assay type: biochemical; set-up: Full-length RAC1 carrying a 6xHis tag in C-terminus was purified as previously described; 6xHis (C); made in house
Procedure: Figure 2 Identification of a new RAC1 inhibitor (A) Effect of A41 and NSC23766 on ruffle formation (white arrows) induced by EGF (10 ng/mL) in NIH 3T3 cells in serum-free culture medium (CTL). Inhibitors were added at indicated concentration 1 h prior to EGF stimulation. To assess cytoskeleton organization, cells were incubated with Alexa Fluor 488 phalloidin to visualize F-actin. Results shown are representative of 3 independent experiments. Corresponding concentration-response curves have been established by counting the percentages of cells with ruffles (scale bars: 10 μm). (B) Immunoblot analysis and associated quantification of RAC-GTP level and total RAC expression in NIH 3T3 cells stimulated by EGF (10 ng/mL, 5 min) and pre-incubated or not (−) with NSC23766, A41, or A415 at 10^−5 M for 1 h (∗∗∗p < 0.001 vs. controls without EGF stimulation, ^###p < 0.001 vs. controls with EGF stimulation) (N > 3). (C) Representative surface plasmon resonance (SPR) sensograms of binding of immobilized RAC1 with increasing concentrations of A41 with or without EDTA (20 mM) (N > 3). (D) Representative in vitro nucleotide exchange catalyzed by the DH-PH of TIAM (10 nM) measured by the binding of fluorescent mant-GTP (1 μM) to RAC1 (0.5 μM, preloaded with GDP) in the presence of indicated concentrations of A41 (out of N = 6). Dotted lines correspond to the experimental curves, and continuous lines represent the fit of experimental points. (E) Kobs and Kmax were determined in each condition (N = 6). (F) Predicted binding modes of A4 to the NSC23766-binding site (left) or the GDP-binding pocket of RAC1 (right). In the NSC23766-binding site of RAC1, the compound A4 (carbon atoms in blue) makes 2 hydrogen bonds (green dotted line) with Ser71 (S71) and 10 hydrophobic interactions (pink dotted line) with Ala3 (A3), Lys5 (K5), Val36 (V36), Trp56 (W56), Tyr64 (Y64), and Leu67 (L67) leading to a docking score of −6.03 kcal/mol. The GDP molecule is shown with fine line. The P loop is shown in yellow, the switch 1 in orange, and the switch 2 in green. In the GDP-binding pocket, A4 establishes 6 hydrogen bonds with Gly15 (G15), Lys16 (K16), Cys18 (C18), and Lys116 (K116), 1 carbon hydrogen bond with Lys116, and 9 hydrophobic interactions with Cys18, Ile33 (I33), Lys116, Leu119 (L119), and Leu160 (L160), resulting in a docking score of −10.32 kcal/mol.
Figure 3 Inhibitory mechanism of A41 (A–D) RAC1 activity was monitored by the change in mant-GTP/GDP fluorescence induced by its binding to or releasing from RAC1 (A–D). GDP-bound RAC1 (0.5 μM) was incubated with TRIO (10 nM) and the indicated concentrations of mant-GTP without and with A41 (5 μM) (A–C). Mant-GDP-bound RAC1 (0.5 μM) was incubated with TRIO (10 nM) and GTP (1 μM) without and with A41 (5 μM) (D). AU: arbitrary fluorescence units. All experiments were done in triplicate. Kmax and Kmin are expressed as mean ± SEM. ∗∗p < 0.01 and ∗∗∗p < 0.001 vs. TRIO. (E) Deconvoluted mass spectra generated from crude mass spectrum analyses to evaluate RAC1 photolabeling with [N3]-A41 by LC-HRMS on native protein. (F) Representative mass spectra of both labeled and unlabeled […] peptide during LC-HRMS analysis of RAC1 photolabeling with [N3]-A41 after trypsin digestion. (G) Predicted binding mode of A41 to the GDP-binding pocket of RAC1. Compound A41 (orange) makes 4 hydrogen bonds (green dotted line) with Lys16 (K16), Cys18 (C18), and Lys116 (K116), 2 carbon hydrogen bond (light green dotted line) with Val14 (V14) and Lys116 (K116), and 7 hydrophobic interactions (pink dotted line) with Cys18 (C18), Phe28 (F28), Lys116 (K116), Ala159 (A159), and Leu160 (L160). The P loop is shown in yellow, the switch 1 in orange, and the switch 2 in green.
Full-length RAC1 carrying a 6xHis tag in C-terminus was purified as previously described.[64] Full-length RAC2, RHOG, RHOA and CDC42 were purified as previously described.[64]^,[65] […]

Chain of Muscarinic M4 (P08173 whole entry): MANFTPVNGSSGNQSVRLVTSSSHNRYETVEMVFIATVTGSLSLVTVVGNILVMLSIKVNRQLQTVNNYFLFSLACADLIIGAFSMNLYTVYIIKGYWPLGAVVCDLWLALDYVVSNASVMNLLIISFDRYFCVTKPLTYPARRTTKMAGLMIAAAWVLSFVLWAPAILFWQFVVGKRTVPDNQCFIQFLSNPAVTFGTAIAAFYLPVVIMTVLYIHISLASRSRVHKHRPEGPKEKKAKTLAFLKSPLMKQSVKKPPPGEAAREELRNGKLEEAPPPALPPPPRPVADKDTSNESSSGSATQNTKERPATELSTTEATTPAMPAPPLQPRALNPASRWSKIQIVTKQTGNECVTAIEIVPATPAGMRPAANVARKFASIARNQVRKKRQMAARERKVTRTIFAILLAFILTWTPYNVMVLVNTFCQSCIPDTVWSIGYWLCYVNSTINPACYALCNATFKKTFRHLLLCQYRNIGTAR
Chain of WNK3(h) (Q9BYP7 whole entry): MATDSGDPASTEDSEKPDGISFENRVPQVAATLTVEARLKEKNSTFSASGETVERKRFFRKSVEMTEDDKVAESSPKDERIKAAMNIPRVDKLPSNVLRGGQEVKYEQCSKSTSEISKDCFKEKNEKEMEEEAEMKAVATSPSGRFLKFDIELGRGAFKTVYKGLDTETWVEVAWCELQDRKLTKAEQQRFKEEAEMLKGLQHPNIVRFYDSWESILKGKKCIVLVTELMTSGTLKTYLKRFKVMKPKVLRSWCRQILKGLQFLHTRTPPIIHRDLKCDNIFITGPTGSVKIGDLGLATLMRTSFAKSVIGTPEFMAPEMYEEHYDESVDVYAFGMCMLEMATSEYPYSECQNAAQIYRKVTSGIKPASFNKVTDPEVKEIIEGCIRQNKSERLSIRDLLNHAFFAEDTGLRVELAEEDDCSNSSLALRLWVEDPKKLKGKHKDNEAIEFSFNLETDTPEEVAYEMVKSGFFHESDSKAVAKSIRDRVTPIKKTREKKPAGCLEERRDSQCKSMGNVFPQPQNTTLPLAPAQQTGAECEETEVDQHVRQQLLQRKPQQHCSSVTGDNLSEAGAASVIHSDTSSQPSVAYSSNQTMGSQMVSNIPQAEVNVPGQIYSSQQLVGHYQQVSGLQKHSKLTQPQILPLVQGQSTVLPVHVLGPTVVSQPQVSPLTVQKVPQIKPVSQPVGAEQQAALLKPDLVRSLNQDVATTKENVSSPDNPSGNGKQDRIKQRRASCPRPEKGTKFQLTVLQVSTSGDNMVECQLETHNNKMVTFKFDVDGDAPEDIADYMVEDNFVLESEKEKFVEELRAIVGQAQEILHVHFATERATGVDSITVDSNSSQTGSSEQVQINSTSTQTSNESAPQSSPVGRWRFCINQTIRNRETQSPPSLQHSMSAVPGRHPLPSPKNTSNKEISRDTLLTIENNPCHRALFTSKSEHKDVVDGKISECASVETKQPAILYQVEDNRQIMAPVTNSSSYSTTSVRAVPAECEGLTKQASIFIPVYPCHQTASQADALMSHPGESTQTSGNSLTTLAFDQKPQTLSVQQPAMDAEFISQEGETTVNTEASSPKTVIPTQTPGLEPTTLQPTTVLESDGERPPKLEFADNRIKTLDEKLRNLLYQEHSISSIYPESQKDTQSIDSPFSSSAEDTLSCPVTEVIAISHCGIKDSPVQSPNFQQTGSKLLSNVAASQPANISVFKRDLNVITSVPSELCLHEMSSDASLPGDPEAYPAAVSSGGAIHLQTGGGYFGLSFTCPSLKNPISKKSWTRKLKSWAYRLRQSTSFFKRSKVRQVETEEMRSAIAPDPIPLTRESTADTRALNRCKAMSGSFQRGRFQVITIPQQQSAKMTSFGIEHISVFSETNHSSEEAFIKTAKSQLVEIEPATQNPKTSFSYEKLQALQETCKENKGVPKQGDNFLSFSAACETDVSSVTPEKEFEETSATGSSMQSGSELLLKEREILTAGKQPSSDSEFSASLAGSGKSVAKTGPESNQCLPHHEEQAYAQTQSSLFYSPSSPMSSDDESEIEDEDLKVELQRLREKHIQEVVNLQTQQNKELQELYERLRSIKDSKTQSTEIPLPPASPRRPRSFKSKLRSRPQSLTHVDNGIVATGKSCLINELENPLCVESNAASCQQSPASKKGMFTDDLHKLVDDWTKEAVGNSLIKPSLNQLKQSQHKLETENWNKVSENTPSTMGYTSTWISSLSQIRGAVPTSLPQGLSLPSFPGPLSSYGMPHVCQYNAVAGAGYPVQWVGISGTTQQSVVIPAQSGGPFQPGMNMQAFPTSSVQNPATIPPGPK
Chain of MSSK1(h) (Q9UPE1 whole entry): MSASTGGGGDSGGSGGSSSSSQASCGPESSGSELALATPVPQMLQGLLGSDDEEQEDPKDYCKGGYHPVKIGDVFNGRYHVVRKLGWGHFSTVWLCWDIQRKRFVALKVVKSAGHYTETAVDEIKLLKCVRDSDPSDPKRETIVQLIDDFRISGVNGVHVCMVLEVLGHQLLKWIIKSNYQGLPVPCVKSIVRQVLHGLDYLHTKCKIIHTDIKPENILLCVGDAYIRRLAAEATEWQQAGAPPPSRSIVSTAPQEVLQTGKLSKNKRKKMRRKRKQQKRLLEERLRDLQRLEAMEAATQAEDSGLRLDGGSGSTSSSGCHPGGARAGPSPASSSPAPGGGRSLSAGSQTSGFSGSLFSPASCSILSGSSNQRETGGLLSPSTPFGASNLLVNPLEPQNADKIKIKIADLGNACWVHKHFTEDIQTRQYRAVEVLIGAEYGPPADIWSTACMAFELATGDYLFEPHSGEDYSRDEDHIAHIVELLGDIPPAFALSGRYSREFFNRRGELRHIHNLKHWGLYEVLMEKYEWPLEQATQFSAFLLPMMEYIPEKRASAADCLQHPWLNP
Chain of HIPK2(h) (Q9H2X6 whole entry): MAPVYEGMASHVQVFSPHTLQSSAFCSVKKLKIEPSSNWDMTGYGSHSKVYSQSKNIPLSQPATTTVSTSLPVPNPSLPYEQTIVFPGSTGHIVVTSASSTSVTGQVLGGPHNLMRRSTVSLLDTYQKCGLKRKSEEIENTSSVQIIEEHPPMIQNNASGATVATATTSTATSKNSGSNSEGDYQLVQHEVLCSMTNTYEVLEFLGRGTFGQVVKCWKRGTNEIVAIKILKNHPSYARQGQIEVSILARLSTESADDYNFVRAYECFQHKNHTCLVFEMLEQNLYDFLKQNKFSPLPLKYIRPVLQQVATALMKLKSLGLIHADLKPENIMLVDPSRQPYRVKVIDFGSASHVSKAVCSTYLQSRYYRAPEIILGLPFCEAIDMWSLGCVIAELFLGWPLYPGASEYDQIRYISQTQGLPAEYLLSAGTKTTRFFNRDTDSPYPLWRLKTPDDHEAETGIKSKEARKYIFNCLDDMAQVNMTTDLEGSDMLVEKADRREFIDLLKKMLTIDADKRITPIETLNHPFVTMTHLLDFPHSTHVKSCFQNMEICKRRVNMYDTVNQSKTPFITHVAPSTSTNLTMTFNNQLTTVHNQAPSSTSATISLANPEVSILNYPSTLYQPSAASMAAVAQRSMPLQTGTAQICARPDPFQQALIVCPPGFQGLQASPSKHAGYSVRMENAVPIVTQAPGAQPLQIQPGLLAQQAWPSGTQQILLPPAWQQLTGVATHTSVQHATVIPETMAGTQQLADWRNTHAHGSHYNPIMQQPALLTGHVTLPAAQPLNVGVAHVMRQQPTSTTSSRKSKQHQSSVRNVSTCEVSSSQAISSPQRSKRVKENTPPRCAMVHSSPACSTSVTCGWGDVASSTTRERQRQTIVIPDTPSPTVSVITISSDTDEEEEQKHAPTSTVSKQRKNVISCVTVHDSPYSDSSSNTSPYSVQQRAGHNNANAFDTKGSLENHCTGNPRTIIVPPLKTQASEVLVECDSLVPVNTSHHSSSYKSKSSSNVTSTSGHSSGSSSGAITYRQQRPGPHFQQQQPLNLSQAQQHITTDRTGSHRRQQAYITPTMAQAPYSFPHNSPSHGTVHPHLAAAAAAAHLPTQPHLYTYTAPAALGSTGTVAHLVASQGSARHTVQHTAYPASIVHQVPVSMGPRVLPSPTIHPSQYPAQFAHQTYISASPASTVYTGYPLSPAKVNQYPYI
Chain of NEK9(h) (Q8TD19 whole entry): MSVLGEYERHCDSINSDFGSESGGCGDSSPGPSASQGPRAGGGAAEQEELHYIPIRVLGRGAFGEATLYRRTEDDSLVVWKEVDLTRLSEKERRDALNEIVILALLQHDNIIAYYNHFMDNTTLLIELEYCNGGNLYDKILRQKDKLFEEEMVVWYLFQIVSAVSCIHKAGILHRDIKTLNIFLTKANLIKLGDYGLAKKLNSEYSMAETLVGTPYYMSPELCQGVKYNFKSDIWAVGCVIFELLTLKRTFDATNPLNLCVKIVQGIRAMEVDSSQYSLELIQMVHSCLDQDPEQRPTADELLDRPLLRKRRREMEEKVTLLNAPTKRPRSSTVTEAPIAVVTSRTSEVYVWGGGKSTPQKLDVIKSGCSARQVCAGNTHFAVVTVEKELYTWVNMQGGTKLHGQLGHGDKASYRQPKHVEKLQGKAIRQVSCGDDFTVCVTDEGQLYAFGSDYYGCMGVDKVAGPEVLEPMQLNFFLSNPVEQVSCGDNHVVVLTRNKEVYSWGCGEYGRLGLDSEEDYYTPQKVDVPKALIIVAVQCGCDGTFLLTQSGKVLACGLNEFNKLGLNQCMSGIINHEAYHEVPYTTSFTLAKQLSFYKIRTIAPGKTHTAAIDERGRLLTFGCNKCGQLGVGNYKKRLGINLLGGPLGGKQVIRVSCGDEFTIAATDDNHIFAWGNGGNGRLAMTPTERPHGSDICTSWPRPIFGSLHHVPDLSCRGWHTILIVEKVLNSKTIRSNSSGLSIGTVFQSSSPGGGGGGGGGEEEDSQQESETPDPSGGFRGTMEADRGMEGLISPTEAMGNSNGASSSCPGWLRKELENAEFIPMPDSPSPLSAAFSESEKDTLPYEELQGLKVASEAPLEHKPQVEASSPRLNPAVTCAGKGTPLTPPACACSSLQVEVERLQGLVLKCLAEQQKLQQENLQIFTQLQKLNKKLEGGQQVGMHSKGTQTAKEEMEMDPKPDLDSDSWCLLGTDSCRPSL

Question: `COc1ccc(OC)c(NS(=O)(=O)c2ccc(NC(=O)CCSc3ccc(C)cc3)cc2)c1` [Compound A41] was tested. Which “Activity(%)” value (PAK2(h)) did it give?
Answer: The value was 110%.

Question: And the “Activity(%)” value (SRPK2(h))?
Answer: Its value is 96%.

Question: What about the “Activity(%)” value (Haspin(h)) of the same compound?
Answer: Its value is 116%.

Question: What about the “% inh.” value (Muscarinic M4) of the same compound?
Answer: The value was -1%.

Question: And the “Activity(%)” value (MEKK2(h))?
Answer: Its value is 102%.

Question: What about the “Activity(%)” value (TrkA(h)) of the same compound?
Answer: The value was 99%.

Question: And the “Activity(%)” value (ICK(h))?
Answer: The value was 77%.

Question: And the “Activity(%)” value (MSSK1(h))?
Answer: Its value is 125%.

Question: And the “Activity(%)” value (NEK2(h))?
Answer: The value was 118%.

Question: And the “Activity(%)” value (WNK3(h))?
Answer: Its value is 101%.

Question: And the “Activity(%)” value (CaMKI(h))?
Answer: The value was 114%.

Question: What about the “Activity(%)” value (HIPK2(h)) of the same compound?
Answer: The value was 81%.

Question: And the “Activity(%)” value (NEK9(h))?
Answer: The value was 107%.

Question: What about the “Inhibition of RAC1 activity (nucleotide exchange assay)” value (RAC1) of the same compound?
Answer: Its value is 46%.

Question: And the “TRIO-induced GDP dissociation” value (RAC1; A41 5 μM, mant-GDP-bound RAC1, GTP 1 μM)?
Answer: Its value is “no effect”.

Question: And the “inhibitory effect on TRIO-induced nucleotide exchange” value (RAC1; A41 5 μM, mant-GTP 5 μM)?
Answer: Its value is “abolished”.

Question: And the “inhibitory effect on TRIO-induced nucleotide exchange” value (RAC1; A41 5 μM, mant-GTP increased from 1 to 2.5 μM)?
Answer: The value was “strongly decreased”.

Question: What about the “plateau (Kmax) of nucleotide exchange” value (RAC1; TIAM DH-PH 10 nM, mant-GTP 1 μM, concentration-dependent) of the same compound?
Answer: The value was “decreased the plateau”.

Question: What about the “spontaneous activity of RAC1” value (RAC1; no GEF) of the same compound?
Answer: The value was “without affecting”.
